Test results reported in PMC10877577 (ACS Chemical Biology, 2024).
Entries after “also recorded” stand apart in the source; their conditions may differ.

Key:
[1] = system: aMinoC1-peptide complex; test: SPR rechallenge: small-molecule-driven dissociation of peptide-Fc from immobilized aMinoC1; type: binding; conditions: peptide-Fc 100 nM, small molecule 1 μM
Experimental: Binding assays were carried out using 1x HBS-EP+ running buffer. Various concentrations (2.5 μM with 2-fold serial dilutions) of the analyte were injected for 150 s at 30 μL/min with 150 s dissociation time. Glycine-HCl (pH 2.0) was used as the regeneration buffer for the sensor chips. For the rechallenge experiment, aMinoC1 was immobilized on a CM5 sensor chip and CX7C peptide-Fc conjugates were loaded at 100 nM and injected as the analyte for 150 s at 30 μL/min. Following the injection of peptide-Fc, a small molecule at 1 μM was injected for 300 s at 30 μL/min, using dual injection function on a Biacore 8k instrument, to dissociate the peptide-Fc from the aMinoC1-peptide complex. The system was then washed using HBS-P^+ buffer for 300 s at 30 μL/min prior to rechallenge with peptide-Fc. The cycle was repeated three times following a final dissociation step of 300 s. For the alanine scanning experiments, the anti-minocycline antibody (sdAb-muIgG2a-Fc fusion) was captured on a Protein A series S sensor chip, to a density of 3000 RU. […] Glycine-HCl (pH 1.5) was used as the regeneration buffer. In each case, flow cell 1 was used for reference subtraction, and a “0 concentration” sensogram of buffer alone was used as a double reference subtraction to factor for drift. Data analysis was carried out using Biacore T200 Evaluation Software, version 3.0, and Biacore Insight evaluation software. The 1:1 Langmuir binding model was used to calculate the association (ka), dissociation (kd) rate constants, and equilibrium dissociation constant (KD).

[2] = target: TetRB; conditions: cited from earlier work
[3] = system: MinoCAR-transduced PBMC against SupT1-EGFR+ target cells; type: cell-based; conditions: 0.1, 1 and 10 μM, 24 h, 1:2 E/T
Experimental: Transduced CAR T cells were determined by staining for the transduction marker RQR8 and normalized by the addition of nontransduced T cells. Effector cells were cocultured with 5.0 × 10^4 number of target cells (SupT1-NT, SupT1-EGFR+, SKOV3-mKate) to achieve the desired effector cell to target ratio. […] Cocultures were incubated for 24–72 h at 37 °C and 5% CO2. After incubation, plates were centrifuged at 400g for 5 min, and the supernatant containing secreted cytokines was collected for cytokine analysis. Cells were stained with anti-hCD34-APC and anti-CD3-PeCy7 to differentiate effector T cells and target cells. Cells were washed with 300 μL o PBS and stained with SYTOX Blue Dead Cell Stain dye. The percentage of target cell survival was measured relative to the number of live target cells cocultured with nonspecific CAR T cells or nontransduced PBMCs.

[4] = system: aMinoC1 sdAb; test: SPR of peptide-Fc or small-molecule analytes against aMinoC1; type: binding, alpaca; conditions: molecules closely related to minocycline
Experimental: (§1) Binding assays were carried out using 1x HBS-EP+ running buffer. Various concentrations (2.5 μM with 2-fold serial dilutions) of the analyte were injected for 150 s at 30 μL/min with 150 s dissociation time. Glycine-HCl (pH 2.0) was used as the regeneration buffer for the sensor chips. For the rechallenge experiment, aMinoC1 was immobilized on a CM5 sensor chip and CX7C peptide-Fc conjugates were loaded at 100 nM and injected as the analyte for 150 s at 30 μL/min. Following the injection of peptide-Fc, a small molecule at 1 μM was injected for 300 s at 30 μL/min, using dual injection function on a Biacore 8k instrument, to dissociate the peptide-Fc from the aMinoC1-peptide complex. The system was then washed using HBS-P^+ buffer for 300 s at 30 μL/min prior to rechallenge with peptide-Fc. The cycle was repeated three times following a final dissociation step of 300 s. For the alanine scanning experiments, the anti-minocycline antibody (sdAb-muIgG2a-Fc fusion) was captured on a Protein A series S sensor chip, to a density of 3000 RU. […] Glycine-HCl (pH 1.5) was used as the regeneration buffer. In each case, flow cell 1 was used for reference subtraction, and a “0 concentration” sensogram of buffer alone was used as a double reference subtraction to factor for drift. Data analysis was carried out using Biacore T200 Evaluation Software, version 3.0, and Biacore Insight evaluation software. […]

[5] = system: aMinoC22 sdAb; test: SPR of related small molecules against aMinoC22; type: binding, alpaca; conditions: molecules closely related to minocycline
Experimental: as §1

[6] = Isothermal titration calorimetry of aMinoC1 binding to minocycline; conditions: sdAb-Fc 2 μM titrated with minocycline 50 μM, 25 °C; read-out: KD (ITC)
Experimental: ITC measurements were performed using the PEAQ-ITC nonautomated (MicroCal) at 25 °C. The antibody sample was dialyzed overnight using 5 L of PBS (20 mM Na3PO4, 150 mM NaCl, pH 7.4). […] The concentration of the anti-minocycline sdAb (as murine IgG2a Fc fusion) was determined using extinction coefficients ε280 nm = 31,065 M^–1 cm^–1.

[7] = nanoDSF thermal unfolding of aMinoC1; type: physicochemical
Experimental: A dye-free protocol was used whereby the intrinsic fluorescence of tryptophan and tyrosine was measured by scanning samples at 330 and 350 nm to determine protein unfolding. […] Melting scan was carried out by setting the run at 1 °C/min temperature increments from 20 to 95 °C. Tm was calculated as first derivative of 350/330 nm ratio.

[8] = SPR of anti-minocycline sdAb-Fc clones binding to minocycline
Experimental: as §1

Molecule	GWARA-Fc dissociation from immobilized aMinoC1 on small-molecule injection [1]	peptide-Fc (HWAQA, PWAYS and QWAMM) dissociation from immobilised aMinoC1 on small-molecule injection [1]	Kd [2] [nM]	effect of other small molecules on MinoCAR cytotoxicity [3]	binding to aMinoC1 (SPR) [4]	binding to aMinoC22 (SPR) [5]	Kd [6] [nM]	first unfolding midpoint (Tm50) ([7]; aMinoC1 alone, PBS pH 7.4) [°C]	improvement of Tm50 with minocycline ([7]; minocycline 1 nM to 2.5 mM)	Tm50 on coincubation with minocycline ([7]; minocycline ranging from 1 nM to 2.5 mM) [°C]	ka [8] [M⁻¹ s⁻¹]	kd [8] [s⁻¹]
CN(C)[C@@H]1C(O)=C(C(N)=O)C(=O)[C@@]2(O)C(O)=C3C(=O)c4c(O)cccc4[C@@](C)(O)[C@H]3C[C@@H]12 [tetracycline]	No enhanced dissociation	No enhanced dissociation	2.8	not affected	Neither sdAb showed an interaction; also recorded: lack of binding; also recorded: without cross-reactivity	Neither sdAb showed an interaction; also recorded: lack of binding	–	–	–	–	–	–
aMinoC1: anti-minocycline single-domain antibody clone 1 from immunized alpaca, tested as sdAb-Fc (antibody, V domains shown) VH: QVQLESGGGLVQPGSSLRLSCAASGRTFSSYNIGWFRQAPKEREFVAAISWSGARTYYADSVKGRFTISRDNAKNTVYLQMNSLKPEDTAVYSCAAGRGWGTEAILDYWGQGTQVSSA	–	–	–	–	–	–	24.9	79.5	over 10 °C	89.6	1.13e+06	0.036
